This passage reports Ki results from patent US7091204B2, “Sulfonamides” (SmithKline Beecham Corporation, priority 2001, dated 2006).

The target of the experiment is T1, human and rat GPR-14 (UniProt Q9UKP6).
T1 sequence (Q9UKP6 1-389): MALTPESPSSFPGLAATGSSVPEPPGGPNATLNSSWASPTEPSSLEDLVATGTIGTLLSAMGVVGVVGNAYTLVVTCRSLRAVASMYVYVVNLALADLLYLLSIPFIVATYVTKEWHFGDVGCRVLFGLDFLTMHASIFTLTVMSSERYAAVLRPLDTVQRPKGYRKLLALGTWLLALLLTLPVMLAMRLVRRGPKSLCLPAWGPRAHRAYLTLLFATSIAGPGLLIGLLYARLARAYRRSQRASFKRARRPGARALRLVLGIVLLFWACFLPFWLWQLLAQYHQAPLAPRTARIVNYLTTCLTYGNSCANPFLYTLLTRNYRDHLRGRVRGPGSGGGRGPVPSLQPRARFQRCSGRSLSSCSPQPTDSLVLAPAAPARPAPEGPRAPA
As to the kind of experiment: Radioligand binding: [125I] h-U-II binding to HEK-293 cell membranes. The conditions noted are these: HEK-293 cell membranes with stable cloned GPR-14; 200 pM [125I] h-U-II; species for the value not stated. How it is done:
HEK-293 cell membranes containing stable cloned human and rat GPR-14 (20 ug/assay) were incubated with 200 pM [125I] h-U-II (200 Ci/mmol^−1 in the presence of increasing concentrations of test compounds in DMSO (0.1 nM to 10 uM), in a final incubation volume of 200 ul (20 mM Tris-HCl, 5 mM MgCl2). Incubation was done for 30 minutes at room temperature followed by filtration GF/B filters with Brandel cell harvester. ^125I labeled U-II binding was quantitated by gamma counting. Nonspecific binding was defined by ^125I U-II binding in the presence of 100 nM of unlabeled human U-II. Analysis of the data was performed by nonlinear least square fitting.

On to `CN1CC[C@@H](Oc2cc(NS(=O)(=O)c3cnc(Cl)nc3OCC(F)(F)F)ccc2Cl)C1` [Example 14, 2-Chloro-4-(2,2,2-trifluoro-ethoxy)-pyrimidine-5-sulfonic acid [4-chloro-3-((R)-1-methyl-pyrrolidin-3-yloxy)-phenyl]-amide], for which affinity was put at a Ki of 590 nM.

Broadly, the Ki is the equilibrium dissociation constant of an inhibitor or competing ligand from its target. Read a high Ki as lower affinity.
